ChEMBL document CHEMBL3228002, “Sulfonated catecholamide analogues of enterobactin as iron sequestering agents” (J Med Chem, 1979)

Experiment: Iron sequestering activity of the compound assessed as [Fe(H2O)6]3+ formation at 10^-5 M at pH 7.4 by spectrophotometrically in presence of 10^-6 M total iron concentration

In order of falling pM:
1. O=C(N[C@H]1COC(=O)[C@@H](NC(=O)c2cccc(O)c2O)COC(=O)[C@@H](NC(=O)c2cccc(O)c2O)COC1=O)c1cccc(O)c1O  35.5
2. O=C(NCc1cc(CNC(=O)c2cc(S(=O)(=O)O)cc(O)c2O)cc(CNC(=O)c2cc(S(=O)(=O)O)cc(O)c2O)c1)c1cc(S(=O)(=O)O)cc(O)c1O  29.4
3. O=C(NCc1cc(CNC(=O)c2cccc(O)c2O)cc(CNC(=O)c2cccc(O)c2O)c1)c1cccc(O)c1O  29.1
4. O=C(NCCCCN(CCCNC(=O)c1cc(S(=O)(=O)O)cc(O)c1O)C(=O)c1cc(S(=O)(=O)O)cc(O)c1O)c1cc(S(=O)(=O)O)cc(O)c1O  28.5
5. CC(=O)N(O)CCCCCNC(=O)CCC(=O)N(O)CCCCCNC(=O)CCC(=O)N(O)CCCCCN  26.6
6. O=C(NCc1cc(S(=O)(=O)O)cc(O)c1O)c1cc(C(=O)NCc2cc(S(=O)(=O)O)cc(O)c2O)cc(C(=O)NCc2cc(S(=O)(=O)O)cc(O)c2O)c1  25.1
7. CN(C)C(=O)c1cc(S(=O)(=O)O)cc(O)c1O  19.2
